Tests used:
HEK293sieSTAT3(Y640F) [1] = assay: drug sensitivity score (DSS), viability CellTiter-Glo (DSS (dimensionless)); higher = more growth inhibition; extreme values may be limits of the assay; settings: 72 h; STAT3 variant: Y640F (constitutively active)
In short: (§1)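 Each value is one representative of two experiments in which HEK293 cells overexpressing wild-type or mutant STAT3 with a STAT3-dependent luciferase reporter were exposed to compounds at 5 concentrations (10-fold dilutions) for 72 hours at 37°C and 5% CO2. Readouts were CellTox Green fluorescence and then CellTiter-Glo luminescence, normalised to negative and positive control wells. The drug sensitivity score was based on the dose-response curve area and computed in Breeze.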

HEK293sieSTAT3(wt) [2] = assay: as above; settings: 72 h; STAT3 variant: wild type
In short: as §1

HEK293sieSTAT3(Y640F) [3] = assay: drug sensitivity score (DSS), cytotoxicity CellTox Green (DSS (dimensionless)); higher = more cytotoxic; extreme values may be limits of the assay; settings: 72 h; STAT3 variant: Y640F (constitutively active)
In short: as §1

HEK293sieSTAT3(wt) [4] = assay: as above; settings: 72 h; STAT3 variant: wild type
In short: as §1

Compound | drug sensitivity score (HEK293sieSTAT3(Y640F) [1]) | drug sensitivity score (HEK293sieSTAT3(wt) [2]) | drug sensitivity score (HEK293sieSTAT3(Y640F) [3]) | drug sensitivity score (HEK293sieSTAT3(wt) [4])
Cc1c(CN2CCN(C(=O)[C@H](C)O)CC2)sc2c(N3CCOCC3)nc(-c3cnc(N)nc3)nc12 [Apitolisib] (top concentration tested 10000 nM) | 23.8 | 19.8 | 0 | 8.67
CN(C)Cc1ccc(S(=O)(=O)n2ccc(/C=C/C(=O)NO)c2)cc1 [Resminostat] (top concentration tested 10000 nM) | 11.5 | 12.3 | 5.95 | 6.75
CCn1c(-c2nonc2N)nc2cnc(Oc3cccc(NC(=O)c4ccc(OCCN5CCOCC5)cc4)c3)cc21 (top concentration tested 10000 nM) | 7.47 | 6.32 | 0.98 | 1.34
CC[C@H](Nc1ncnc2[nH]cnc12)c1nc2cccc(F)c2c(=O)n1-c1ccccc1 [Idelalisib] (top concentration tested 10000 nM) | 1.95 | 2.04 | 0 | 0.23
Nc1nc(N)c2nc(-c3cccc(O)c3)c(-c3cccc(O)c3)nc2n1 [TG100-115] (top concentration tested 10000 nM) | 0.15 | 0 | 0 | 0
O=C(Nc1cccc(C(F)(F)F)c1)Nc1cc(S(=O)(=O)NC2CC2)ccc1-c1ccsc1 [AGI-6780] (top concentration tested 10000 nM) | 1.05 | 2.88 | 0 | 1.62
CCCCC/C=C/C=C1/C(=O)C=C[C@@H]1C/C=C\CCCC(=O)O [15D-PGJ2] (top concentration tested 3000 nM) | 1.33 | 0 | 0 | 0
CCn1c(-c2nonc2N)nc2c(C#CC(C)(C)O)ncc(OC[C@H]3CCCNC3)c21 (top concentration tested 10000 nM) | 13.7 | 16.9 | 0.19 | 1.28
Cc1nc(Nc2n[nH]c3c2CN(C(=O)N[C@H](CN(C)C)c2ccccc2)C3(C)C)c2sccc2n1 (top concentration tested 10000 nM) | 19.3 | 32.7 | 0.9 | 34
COC1=CC(c2cc3ccccc3[nH]2)=N/C1=C\c1[nH]c(C)cc1C [Obatoclax] (top concentration tested 10000 nM) | 1.57 | 2.27 | 0 | 0
CO[C@H]1C[C@@H]2CC[C@@H](C)[C@@](O)(O2)C(=O)C(=O)N2CCCC[C@H]2C(=O)O[C@H]([C@H](C)C[C@@H]2CC[C@@H](O)[C@H](OC)C2)CC(=O)[C@H](C)/C=C(\C)[C@@H](O)[C@@H](OC)C(=O)[C@H](C)C[C@H](C)/C=C/C=C/C=C/1C [Sirolimus] (top concentration tested 100 nM) | 7 | 9.09 | 0 | 0
Oc1ncc(N(CCCl)CCCl)c(O)n1 [Uramustine] (top concentration tested 10000 nM) | 0.79 | 0.26 | 0 | 0
C[C@@H](Oc1cc(-c2cnn(C3CCNCC3)c2)cnc1N)c1c(Cl)ccc(F)c1Cl [Crizotinib] (top concentration tested 1000 nM) | 1.05 | 1.97 | 0.46 | 5.34
CC/C(=C(\c1ccccc1)c1ccc(OCCN(C)C)cc1)c1ccccc1 [Tamoxifen] (top concentration tested 10000 nM) | 4.47 | 5.42 | 2.88 | 8.77
CNC(=O)c1ccccc1Sc1ccc2c(/C=C/c3ccccn3)n[nH]c2c1 [Axitinib] (top concentration tested 10000 nM) | 5.84 | 8.07 | 4.38 | 7.83
CCS(=O)(=O)N1CCN(c2ccc(Nc3ncc(C(N)=O)c(NC4CC4)n3)cc2)CC1 [Cerdulatinib] (top concentration tested 10000 nM) | 6.32 | 9.09 | 0.63 | 7.28
CCc1cncnc1N1CCN(Cc2nc3ccc(C(F)(F)F)cc3[nH]2)CC1 (top concentration tested 10000 nM) | 2.33 | 1.35 | 1.05 | 0.48
CC(C)N(C[C@H]1O[C@@H](n2cnc3c(N)ncnc32)[C@H](O)[C@@H]1O)[C@H]1C[C@@H](CCc2nc3cc(C(C)(C)C)ccc3[nH]2)C1 [Pinometostat] (top concentration tested 1000 nM) | 0.69 | 0 | 0.46 | 0
CCN1CCN(c2ccc(Nc3cc(N(C)C(=O)Nc4c(Cl)c(OC)cc(OC)c4Cl)ncn3)cc2)CC1 [NVP-BGJ398] (top concentration tested 1000 nM) | 0.2 | 0 | 0 | 2.48
CC(C)NC(=O)COc1cccc(-c2nc(Nc3ccc4[nH]ncc4c3)c3ccccc3n2)c1 [SLx-2119] (top concentration tested 5000 nM) | 10.7 | 5.8 | 0 | 0.57
COc1cc(N2CCN(C)CC2)ccc1Nc1nccc(-c2cn(C)c3cnccc23)n1 [AZ191] (top concentration tested 10000 nM) | 6.19 | 4.19 | 1.68 | 2.77
NC(=O)NO [Hydroxyurea] (top concentration tested 100000 nM) | 4.19 | 1.75 | 0 | 0

Compound | drug sensitivity score (HEK293sieSTAT3(Y640F) [1]) | drug sensitivity score (HEK293sieSTAT3(wt) [2]) | drug sensitivity score (HEK293sieSTAT3(Y640F) [3]) | drug sensitivity score (HEK293sieSTAT3(wt) [4])
CN(C)CCN1C(=O)c2cccc3cc(N)cc(c23)C1=O [Amonafide] (top concentration tested 10000 nM) | 11.3 | 15 | 1.87 | 7.09
COc1cc2c(N3CCN(C(=O)Nc4ccc(OC(C)C)cc4)CC3)ncnc2cc1OCCCN1CCCCC1 [Tandutinib] (top concentration tested 1000 nM) | 0.33 | 1.99 | 0 | 0
Nc1nc(F)nc2c1ncn2[C@@H]1O[C@H](CO)[C@@H](O)[C@@H]1O [Fludarabine] (top concentration tested 10000 nM) | 0.19 | 3.07 | 0 | 0
NC(=O)N1CCC(CC(=O)N2CCC([C@H]3c4ncc(Br)cc4CCc4cc(Cl)cc(Br)c43)CC2)CC1 [Lonafarnib] (top concentration tested 10000 nM) | 6.11 | 8.7 | 0.03 | 1.31
C[C@H](Nc1ncnc2nc[nH]c12)c1cc2cccc(Cl)c2c(=O)n1-c1ccccc1 [Duvelisib] (top concentration tested 500 nM) | 3.95 | 2.36 | 0 | 0
C[C@@H](Nc1cc(F)cc(F)c1)c1cc(C(=O)N(C)C)cc2c(=O)cc(N3CCOCC3)oc12 [AZD-8186] (top concentration tested 1000 nM) | 0 | 0.9 | 0 | 0
CCn1c(=O)c(-c2cc[nH]n2)cc2c(C)nc(N)nc21 [Voxtalisib] (top concentration tested 10000 nM) | 8.35 | 9.9 | 0 | 3.54
O=C(Nc1ccc(OC(F)(F)F)cc1)c1sccc1NCc1ccnc2ccccc12 [OSI-930] (top concentration tested 2500 nM) | 0.46 | 1.31 | 0 | 0
O=[N+]([O-])c1ccc2c(c1)S(=O)(=O)C=C2 [Stattic] (top concentration tested 50000 nM) | 17.2 | 17.2 | 16.9 | 18.9
CCN1CCN(Cc2ccc(Nc3ncc(F)c(-c4cc(F)c5nc(C)n(C(C)C)c5c4)n3)nc2)CC1 [Abemaciclib] (top concentration tested 2500 nM) | 0.98 | 0.4 | 0 | 0
Cc1cc(C)c(CNC(=O)c2cc(-c3ccc(CN4CCOCC4)cc3)cc3c2cnn3C2CCCC2)c(=O)[nH]1 [EPZ-5687] (top concentration tested 10000 nM) | 0 | 0 | 0 | 0
C[C@@]1(C(=O)Nc2ccc(F)nc2)CCCN1c1nc(Nc2cc(C3CC3)n[nH]2)c2cccn2n1 (top concentration tested 10000 nM) | 17.4 | 15.8 | 0.48 | 5.21
Oc1c2ccccc2c2c3c(cccc13)N=N2 (top concentration tested 100000 nM) | 7.42 | 6.18 | 0.97 | 2.91
Nc1nc2[nH]cc(CCc3ccc(C(=O)N[C@@H](CCC(=O)O)C(=O)O)cc3)c2c(=O)[nH]1 [Pemetrexed] (top concentration tested 10000 nM) | 12.9 | 13.3 | 0 | 2.93
COc1ccc(-c2ccc3c(N4CCOC[C@@H]4C)nc(N4CCOC[C@@H]4C)nc3n2)cc1CO [AZD8055] (top concentration tested 10000 nM) | 25.7 | 26.8 | 0 | 3.7
CCC/C=C/C=C/C(=O)O[C@H]1/C(=C/C(=O)OC)C[C@H]2C[C@H]([C@@H](C)O)OC(=O)C[C@H](O)C[C@@H]3C[C@H](OC(C)=O)C(C)(C)[C@](O)(C[C@@H]4C/C(=C/C(=O)OC)C[C@H](/C=C/C(C)(C)[C@]1(O)O2)O4)O3 [Bryostatin 1] (top concentration tested 100 nM) | 0 | 0.13 | 0.65 | 0.86
CS(=O)(=O)c1ccc(-c2cnc(N)c(C(=O)Nc3ccccc3)n2)cc1 [VE-821] (top concentration tested 10000 nM) | 2.27 | 2.94 | 0 | 0
CC[C@@H]1C(=O)OC[C@@H]1Cc1cncn1C [Pilocarpine] (top concentration tested 40000 nM) | 0.59 | 1.32 | 0 | 0
COC(=O)N[C@@H](C)CNc1nccc(-c2cn(C(C)C)nc2-c2cc(Cl)cc(NS(C)(=O)=O)c2F)n1 [Encorafenib] (top concentration tested 1000 nM) | 0.92 | 3.05 | 0 | 0
Clc1ccccc1C(c1ccccc1)(c1ccccc1)n1cccn1 [TRAM-34] (top concentration tested 1000 nM) | 1.41 | 1.55 | 0 | 0
CCc1nc(-c2cccc(C)c2)c(-c2ccnc(NC(=O)c3ccccc3)c2)s1 [TAK-715] (top concentration tested 10000 nM) | 4.68 | 4.5 | 0 | 0
Cc1cc2c(F)c(Oc3ncnn4cc(OC[C@@H](C)O)c(C)c34)ccc2[nH]1 [Brivanib] (top concentration tested 1000 nM) | 0.26 | 0 | 0 | 0

— the supplement of paper PMC7108870
